Results reported in PubChem BioAssay (NCI).
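Briefly, cells in 96-well plates were exposed to five compound concentrations for 48 h, and endpoints were estimated by linear interpolation. The concentration for full growth arrest is given as TGI.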 Where a SMILES comes first, the peptide text is derived from it. The star is where a group is joined. Cbz = O=C(OCc1ccccc1)*

Assays:
Test in all cases: NCI anticancer screen, dose series, 48 h
SK-MEL-5 melanoma = test system: SK-MEL-5 melanoma
SNB-19 CNS = test system: SNB-19 CNS
KM12 colon = test system: KM12 colon
NCI-H23 lung = test system: NCI-H23 lung
EKVX NSCLC = test system: EKVX NSCLC
OVCAR-4 ovarian = test system: OVCAR-4 ovarian
U251 CNS = test system: U251 CNS
COLO 205 colon = test system: COLO 205 colon
MOLT-4 leukemia = test system: MOLT-4 leukemia
MDA-MB-435 = test system: MDA-MB-435
MDA-N = test system: MDA-N
MDA-MB-231 breast = test system: MDA-MB-231 breast
SF-295 CNS = test system: SF-295 CNS
HCC-2998 colon = test system: HCC-2998 colon
CCRF-CEM leukemia = test system: CCRF-CEM leukemia
MALME-3M melanoma = test system: MALME-3M melanoma
HOP-92 NSCLC = test system: HOP-92 NSCLC
HS 578T breast = test system: HS 578T breast
SF-539 CNS = test system: SF-539 CNS

Compound	TGI (SK-MEL-5 melanoma) [µM]	TGI (SNB-19 CNS) [µM]	TGI (KM12 colon) [µM]	TGI (NCI-H23 lung) [µM]	TGI (EKVX NSCLC) [µM]	TGI (OVCAR-4 ovarian) [µM]	TGI (U251 CNS) [µM]	TGI (COLO 205 colon) [µM]	TGI (MOLT-4 leukemia) [µM]	TGI (MDA-MB-435) [µM]	TGI (MDA-N) [µM]	TGI (MDA-MB-231 breast) [µM]	TGI (SF-295 CNS) [µM]	TGI (HCC-2998 colon) [µM]	TGI (CCRF-CEM leukemia) [µM]	TGI (MALME-3M melanoma) [µM]	TGI (HOP-92 NSCLC) [µM]	TGI (HS 578T breast) [µM]	TGI (SF-539 CNS) [µM]
COC(=O)/C=C\C(C#N)(C#N)N=Cc1cc(Br)cs1	18.3	32.5	48	13.5	18.7	27.1	29.3	3.99	> 100	8.34	6.62	23.3	31.8	30.8	2.38	3.47	4.73	45.1	11
C=C(Nc1nc2ccc(C)cc2s1)C(=O)C(CC)C(=O)C(CC)CC1C(=O)NC(=O)NC1=O (stereo not drawn)	> 100	> 100	> 100	> 100	> 100	> 100	> 100	> 100	> 100	> 100	> 100	> 100	> 100	> 100	> 100	–	> 100	> 100	> 100
[N-]=[N+]=NCc1nc(N)c2c3c(sc2n1)CCCC3	3.41	21.4	2.86	3.78	4.95	1.42	> 25.3	> 39.3	> 100	32	13.9	80.6	27.9	4.76	> 100	3.27	1.77	14.9	3.46
CC(=O)OCC1OC(n2c(C)cc(C)c(C#N)c2=S)C(OC(C)=O)C(OC(C)=O)C1OC(C)=O (stereo not drawn)	> 100	> 100	> 100	> 100	–	> 100	> 100	> 100	> 100	> 100	> 100	> 100	> 100	> 100	> 100	> 100	> 100	> 100	> 100
Cn1c2c(c3ccccc31)CCN1C(=O)CN(C(=O)C3CCCCC3)CC21 (stereo not drawn)	> 100	> 100	> 100	> 100	> 100	> 100	> 100	> 100	> 100	> 100	> 100	> 100	> 100	> 100	> 100	> 100	> 100	> 100	> 100
CC(C)=CCC/C(C)=C/CC/C(C)=C/CC(CO)N(C)CC/C=C(\C)CCC=C(C)C (stereo not drawn)	23.2	21.5	14.5	21.8	23.4	22.4	14.5	6.85	6.69	13.2	12.4	22.6	19.9	10.8	> 25.2	8.75	8.85	16.7	9.76
CCOC(=O)c1sc2c(c1OC(=O)c1ccc(OC)cc1)c(=O)n(-c1ccccc1)c(=S)n2-c1ccccc1	> 100	> 100	> 100	> 100	> 100	24.6	> 100	> 100	> 100	> 100	> 100	54.2	> 100	38	> 100	> 100	63.4	> 100	> 100
N#Cc1c(-c2ccc(Cl)cc2)c(C#N)c(=O)n(NS(=O)(=O)c2ccccc2)c1O	32.3	> 100	77.8	–	> 100	> 100	> 100	> 100	71.2	> 100	> 100	98.2	> 100	35	88.6	> 100	71.1	63.9	55.6
CCOC(=O)/C=C(/C(=O)OCC)n1cnc2c(=O)[nH]c(NC(C)=O)nc21	> 100	> 100	> 100	> 100	> 100	> 100	> 100	> 100	> 100	> 100	> 100	> 100	> 100	> 100	> 100	> 100	> 100	> 100	> 100
O=C(N(O)c1ccccc1Cl)C(O)(c1ccccc1)c1ccccc1	> 100	> 100	> 100	> 100	> 100	> 100	> 100	> 100	> 100	> 100	> 100	> 100	> 100	> 100	41	> 100	> 100	> 100	> 100
[N-]=[N+]=CC(=O)OC1Cc2ccccc2C1	> 100	> 100	> 100	> 100	> 100	> 100	> 100	> 100	> 100	> 100	> 100	> 100	> 100	> 100	> 31.6	> 100	> 100	> 100	> 100
CCOC(=O)/C=C(\C(=O)OCC)n1ccc(=O)n(Cc2cn(CCCCOC(C)=O)nn2)c1=O	> 54.2	> 55.6	31.5	32.3	31.4	48.2	30.9	> 36.2	9.12	18.1	42.6	39.1	> 62.1	41	4.59	4.83	5.15	63.1	5.65
CCOC(=O)C(CCN1CCC2(CC1)C(=O)N(C)CN2c1ccccc1)C(=O)OCC	> 100	> 100	> 100	> 100	> 100	> 100	> 100	> 100	> 100	> 100	> 100	> 100	> 100	> 100	> 100	> 100	> 100	> 100	> 100
CC1OC(OC2C(OC(=O)[C@]34CCC(C)(C)C[C@H]3C3=CC[C@@H]5[C@@]6(C)CC[C@H](OC7OC(CO)C(O)C(O)C7OC7OC(CO)C(O)C(O)C7O)C(C)(C)[C@@H]6CC[C@@]5(C)[C@]3(C)CC4)OCC(O)C2O)C(O)C(OC2OCC(O)C(O)C2O)C1OC1OCC(O)C(OC2OCC(O)C(O)C2O)C1O (stereo partly drawn)	23.3	49.5	21.8	25.1	17.1	> 61.6	> 56.8	8.16	48.6	5.6	5.77	26.9	21.4	4.38	> 100	18.3	20.2	50.9	> 100
O=c1nc(N2CCNCC2)oc2cc(Cl)oc(=O)c12	19	36.7	15.5	27	19.4	21.6	16	19	7.37	18.5	9.06	35.7	20.9	25.1	47.8	14.5	15.6	5.9	11.8
COc1ccc(/C=C2\c3cc(OC)c(OC)cc3CCN2C(=O)c2ccccc2)cc1OC	45	> 100	> 100	> 100	> 100	–	> 100	> 100	80.6	49	65.2	> 100	> 100	> 100	98.4	71.1	> 100	> 100	> 100
CC1=C(/C=C/C(C)=C/C=C/C(C)=C/C(=O)OC2CC(n3cc(F)c(=O)[nH]c3=O)OC2CO)C(C)(C)CCC1 (stereo not drawn)	13.9	23.6	31.4	20.7	32.9	21.5	20	25.8	20.2	25.2	23.2	29.4	14.3	26.8	31.8	31.9	36.7	> 56	0.54
COc1ccc(C[C@H]2COC(=O)[C@@H]2Cc2cccc(Br)c2)cc1OC	30.5	> 100	43.3	> 100	97.1	58	73.4	28.7	82.3	56.9	60.1	64.9	> 100	66.4	39.2	47.6	48.3	> 100	41.4
COC(=O)C1=C(O)c2ccc(Cl)cc2S(=O)(=O)N1C	> 100	> 100	> 100	> 100	> 100	> 100	> 100	> 100	> 100	> 100	> 100	> 100	> 100	> 100	> 100	> 100	> 100	> 100	–
Cc1cc(C(F)(F)F)cc(-n2nc(NS(=O)(=O)c3cc(C)c(Cl)cc3S)nc2N)n1	> 100	> 100	> 100	–	> 100	> 100	> 100	> 100	69.5	> 100	> 100	> 100	> 100	> 100	54.1	> 100	> 100	> 100	–
COc1ccc(-c2cc3ccccc3oc2=O)cc1OC	> 100	> 100	> 100	> 100	> 100	> 100	> 100	> 100	> 100	> 100	> 100	> 100	> 100	–	> 100	> 100	> 100	> 100	> 100
CC(NC(=O)C(NC(=O)OCc1ccccc1)C(C)C)C(=O)NCC(=O)O (stereo not drawn) (Cbz-Val-Ala-Gly-OH; configuration not given here)	> 100	> 100	> 100	> 100	> 100	–	> 100	> 100	> 100	> 100	> 100	> 100	> 100	> 100	–	> 100	> 100	> 100	> 100
O=C1C=C(NCCOCCO)C(=O)c2c(O)ccc(O)c21	25.9	> 100	> 100	47.9	–	33.4	77.9	32.7	79.7	32.6	31.3	> 100	> 100	43.6	76.2	24.2	51.3	> 100	54.6
O=c1oc2c/c(=C\c3ccc([N+](=O)[O-])cc3)c(=O)c3cccc1c3-2	> 100	> 100	> 100	> 100	> 100	–	> 100	> 100	> 100	> 100	> 100	> 100	> 100	> 100	> 100	> 100	> 100	> 100	–
